Article PMC6478823, “A suite of phenotypic assays to ensure pipeline diversity when prioritizing drug-like Cryptosporidium growth inhibitors” (Nature Communications, 2019)

How the values were obtained:
C. parvum [1] = type: cell-based, Cryptosporidium parvum; settings: compound at EC90; for Invasion Assay: Mean % Inhibition (parasites), Average: average of replicates; for effect on host cell invasion / parasitophorous vacuole formation: result in words; for Invasion Assay: Mean % Inhibition (parasites), Replicate 1a: single biological replicate 1; for Invasion Assay: Mean % Inhibition (parasites), Replicate 2a: single biological replicate 2
C. parvum [2] = assay: DNA replication assay (EdU incorporation); type: cell-based, Cryptosporidium parvum; settings: compound at EC90; for DNA Synthesis Assay: Mean % Inhibition of EdU-labeling (normalized to parasite numbers), Average: average of replicates; for DNA Synthesis Assay: Mean % Inhibition of EdU-labeling (normalized to parasite numbers), Replicate 1: single replicate 1; for DNA Synthesis Assay: Mean % Inhibition of EdU-labeling (normalized to parasite numbers), Replicate 2: single replicate 2; for DNA Synthesis Assay: Mean % Inhibition of EdU-labeling (normalized to parasite numbers), Replicate 3: single replicate 3
[3] = system: C. parvum DMC1 expression; assay: Sexual differentiation assay (DMC1 expression); type: cell-based, Cryptosporidium parvum; settings: compound at asexual EC90, 48-72 h; for Asexual to sexual differentiation: Mean % DMC1 inhibition (normalized to host nuclei), Average: average of replicates; for Asexual to sexual differentiation: Mean % DMC1 inhibition (normalized to host nuclei), Replicate 1a: single replicate 1; for Asexual to sexual differentiation: Mean % DMC1 inhibition (normalized to host nuclei), Replicate 2a: single replicate 2; for Asexual to sexual differentiation: Mean % DMC1 inhibition (normalized to host nuclei), Replicate 3a: single replicate 3
Outline: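 High-content microscopy of infected cells fixed at set times post-infection, stained with anti-DMC1 mAb 1H10G7, Vicia villosa lectin and Hoechst; lectin-positive parasites counted, then DMC1-positive.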

C. parvum [4] = assay: Egress, motility, reinvasion assay (PV ratio); settings: compound at EC90; for Egress and Reinvasion Assay: Mean PV ratios (19.5h:6h), Average: average of replicates; for Egress and Reinvasion Assay: Mean PV ratios (19.5h:6h), Replicate 1a: single replicate 1; for Egress and Reinvasion Assay: Mean PV ratios (19.5h:6h), Replicate 2a: single replicate 2; for Egress and Reinvasion Assay: Mean PV ratios (19.5h:6h), Replicate 3a: single replicate 3; for Egress and Reinvasion Assay: Mean PV ratios (19.5h:6h), Replicate 4a: single replicate 4
Procedure: For quantification of parasitophorous vacuoles over time, HCT-8 cells were grown to greater than 90% confluence in 384-well plates and infected with 11,000 oocysts after triggering excystation.

[5] = yes/no grouping by phenotypic assay result

Compound | Invasion Assay: Mean % Inhibition (parasites), Average (C. parvum [1]) [%] | effect on host cell invasion / parasitophorous vacuole formation (C. parvum [1]) | Invasion Assay: Mean % Inhibition (parasites), Replicate 1a (C. parvum [1]) [%] | Invasion Assay: Mean % Inhibition (parasites), Replicate 2a (C. parvum [1]) [%] | DNA Synthesis Assay: Mean % Inhibition of EdU-labeling (normalized to parasite numbers), Average (C. parvum [2]) [%] | DNA Synthesis Assay: Mean % Inhibition of EdU-labeling (normalized to parasite numbers), Replicate 1 (C. parvum [2]) [%] | DNA Synthesis Assay: Mean % Inhibition of EdU-labeling (normalized to parasite numbers), Replicate 2 (C. parvum [2]) [%] | Asexual to sexual differentiation: Mean % DMC1 inhibition (normalized to host nuclei), Average [3] [%] | Asexual to sexual differentiation: Mean % DMC1 inhibition (normalized to host nuclei), Replicate 1a [3] [%] | Asexual to sexual differentiation: Mean % DMC1 inhibition (normalized to host nuclei), Replicate 2a [3] [%] | Asexual to sexual differentiation: Mean % DMC1 inhibition (normalized to host nuclei), Replicate 3a [3] [%] | Egress and Reinvasion Assay: Mean PV ratios (19.5h:6h), Average (C. parvum [4]) | Egress and Reinvasion Assay: Mean PV ratios (19.5h:6h), Replicate 1a (C. parvum [4]) | Egress and Reinvasion Assay: Mean PV ratios (19.5h:6h), Replicate 2a (C. parvum [4]) | Egress and Reinvasion Assay: Mean PV ratios (19.5h:6h), Replicate 3a (C. parvum [4]) | Egress and Reinvasion Assay: Mean PV ratios (19.5h:6h), Replicate 4a (C. parvum [4]) | DNA Synthesis Assay: Mean % Inhibition of EdU-labeling (normalized to parasite numbers), Replicate 3 (C. parvum [2]) [%] | other results
CC(=O)Oc1ccccc1C(=O)Nc1ncc([N+](=O)[O-])s1 [Nitazoxanide] | 13.83 | no significant effect on parasitophorous vacuole formation | 11 | 17 | -9.16 | -33.81 | 15.50 | 81.79 | 79.14 | 81.57 | 59.72 | 1.40 | 1.33 | 1.77 | 1.37 | 1.12 | – | Asexual to sexual differentiation: Mean % DMC1 inhibition (normalized to host nuclei), Replicate 4a ([3]; single replicate 4): 95.07%; Asexual to sexual differentiation: Mean % DMC1 inhibition (normalized to host nuclei), Replicate 5a ([3]; single replicate 5): 93.41%
CC(=NOCCN)c1cccc(C(C)(C)NC(=O)Nc2ccc(Cl)c(C(F)(F)F)c2)c1 [P257] | 9.88 | – | 4 | 16 | 97.76 | 97.49 | 98.03 | 70.52 | 67.08 | 73.96 | – | 0.84 | 1.06 | 0.97 | 0.68 | 0.65 | – | –
NC[C@@H]1O[C@H](O[C@H]2[C@@H](O)[C@H](O[C@@H]3[C@@H](O)[C@H](N)C[C@H](N)[C@H]3O[C@H]3O[C@H](CO)[C@@H](O)[C@H](O)[C@H]3N)O[C@@H]2CO)[C@H](N)[C@@H](O)[C@@H]1O [Paromomycin] | -28.42 | no significant effect on parasitophorous vacuole formation | -32 | -25 | 18.81 | -11.54 | 39.99 | 43.80 | 58.59 | 65.91 | 6.88 | 2.15 | 2.19 | 2.11 | – | – | 27.99 | effect on C. parvum DNA replication / EdU incorporation (C. parvum [2]; result in words): no effect on EdU incorporation
Cc1cc(/C=C/c2ccc3cc(N(C)C)ccc3[n+]2C)c(C)n1-c1ccccc1 [Pyrvinium pamoate] | 25.69 | – | 30 | 22 | – | 94.57 | 70.33 | 68.07 | 51.94 | 84.21 | – | 0.61 | 0.97 | 0.85 | 0.33 | 0.30 | – | DNA synthesis (mean % inhibition) (C. parvum [2]; EdU added 9 h post-infection for 2 h): 88.30%
[H]/N=C(/NCCCCC)N/N=C/c1c[nH]c2ccc(OC)cc12 [Tegaserod] | 13.93 | – | 26 | 2 | -6.72 | -11.69 | -25.63 | 12.05 | 41.94 | -17.83 | – | 1.01 | 0.96 | 1.06 | – | – | 17.15 | Sporozoite invasion (C. parvum [1]; [5]): no; DNA synthesis (C. parvum [2]; [5]): no
